From patent US20070249545A1, “DIHYDROFOLATE REDUCTASE INHIBITION BY EPIGALLOCATECHIN GALLATE COMPOUNDS” (priority 2004, published 2007)
Read-outs that look alike come from different tables or passages of the source.

Assays:
S. maltophilia DHFR = S. maltophilia DHFR (Stenotrophomonas maltophilia, UniProt B2FPG1); format: biochemical; conditions: for Km: partially purified S. maltophilia DHFR, substrate
Experimental: For the DHFR extraction, S. maltophilia strain number 1, was inoculated onto fresh agar 24 h before using. Then, liquid medium was inoculated with the strain and these broth cultures were incubated at 37° C. and shaken at 100 cycles per min. Solid medium was MacConkey agar (Oxoid Ltd., Basingstoke, England). Liquid medium was Brilliant Green Bile 2% broth (Oxoid). Bacteria were grown to mid-log phase, harvested by centrifugation (1,600 rpm 30 min) and washed twice in 50 mM phosphate buffer (pH 7.0) followed each time by a new centrifugation (1,600 rpm 5 min). Cell lysis, centrifugation, and dialysis were carried out between 4 and 8° C. Fast protein liquid chromatography (FPLC) purification steps were performed at room temperature. […] After centrifugation at 36,000 rpm for 30 min to remove cell debris, the supernatant was filtered. This supernatant was brought to 40% saturation with solid ammonium sulfate under continuous stirring. After 1 h the solution was centrifuged at 35,000 rpm for 30 min and the pellet discarded. Additional ammonium sulfate was added to the clear supernatant to give 90% saturation and stirred for 1 h. After centrifugation, the precipitates were suspended in 2 ml of buffer B (10 mM potassium phosphate buffer, pH 7.4, 2 mM β-mercaptoethanol). Concentrated enzyme (2 ml samples) was loaded onto a […] gel-filtration column (Sephacryl S-75 16/60 Hi-Prep, Amersham Pharmacia Biotech Europe GmbH, Barcelona, Spain), equilibrated with buffer B and eluted at 0.5 ml/min. The active fractions were concentrated and stored at −80° C. until used.
Initial velocity inhibition experiments were carried out for the inhibition studies of S. maltophilia with TMP and EGCG. One substrate (NADPH) was held constant at saturating concentration while the other substrate (DHF) and the inhibitor (TMP or EGCG) were varied. To prevent the oxidation of EGCG the reaction mixture contained 1 mM N-acetylcysteine (Sigma). For MTX inhibition the slow development of […] inhibition was determined by continuously monitoring the disappearance of NADPH and DHF after initiation of the reaction by the addition of DHFR. Reaction mixtures contained buffer, NADPH (100 μM), DHF (20 μM), and various concentrations of MTX. The extent of recovery of enzymatic activity following inhibition induced by preincubation with DHFR inhibitors was determined as follows. DHFR was preincubated for 30 min at 25° C. in the buffer mixture containing MTX, TMP or EGCG. An aliquot of the incubation mixture was then diluted 500-fold into a reaction mixture containing buffer mixture, NADPH (100 μM), and DHF (20 μM). Recovery of enzyme activity was followed by continuous monitoring at 340 nm.
Provided that the concentration of free inhibitor is not substantially altered by the formation of an enzyme-NADPH-inhibitor complex, the progress curve for the inhibition in the presence of saturating NADPH can be described by Eqn. 1 (as above): P=vst+(v0−vs)(1−exp(−kobst))/kobs • where vs, v0 and kobs represent the steady-state velocity, initial velocity and apparent first-order rate constant, respectively. The apparent first-order rate constant is related to the inhibitor concentration by Eqn. 2, where Ki denotes the dissociation constants for the initial binding of MTX to the enzyme-NADPH complex. [formula]

L1210 cells = test: EGCG cytotoxicity / growth of L1210 cells; format: cell-based, mouse; conditions: L1210; hypoxanthine-thymidine (HT) medium; EGCG 20 μM
Experimental: L1210 cells were plated at a density of 10,000 cells/ml in 96-well plates with a “standard folate” RPMI 1640 medium supplemented with 10% FCS. Reversion experiments were carried out in an HT medium and/or by adding 50 μM ascorbic acid (AA). Cell injury was evaluated by a calorimetric assay for mitochondrial function using the MTT test.^29
The effect of different EGCG concentrations on L1210 cell growth after 29 h of treatment at two different folic acid concentrations was determined. The cells were previously adapted over a period of 2-3 days to grow in folate-free RPMI 1640 medium supplemented with 10% dialyzed FCS and 2 mM glutamine. This medium is subsequently referred to as LF (low folate). For the cytotoxicity assay, the cells were grown in LF media supplemented with folic acid (3 μM or 300 nM). Treatments were carried out in triplicate, and each experiment performed at least twice. Cell growth was determined by two different methods, Coulter counter Z2 and hemocytometer (FIG. 7). IC50 values were determined at each folic acid concentration added to the medium.
The growth-inhibitory effects of 10 μM EGCG at various folic acid concentrations were determined at two different time intervals. L1210 cells were cultured in a LF medium supplemented with the corresponding folic acid concentration. The data were obtained by using a Coulter counter and hemocytometer and expressed assuming a zero percentage of growth inhibition for untreated control (FIG. 8). Cells were maintained in the corresponding medium with 100 μg/ml of penicillin and streptomycin at 37° C. in a humid 7.5% CO2, […] environment for all the experiments.

p16 = p16 methylation status in Caco-2 cells; conditions: EGCG 20 μM, 7-days treatment
bovine liver DHFR = biological target: T1, bovine liver DHFR (Bos taurus, UniProt P00376); test: Kinetic analysis of inhibition of bovine liver DHFR; format: biochemical
T1 construct: from tissue; host or cells: bovine liver
T1 sequence (P00376 1-187): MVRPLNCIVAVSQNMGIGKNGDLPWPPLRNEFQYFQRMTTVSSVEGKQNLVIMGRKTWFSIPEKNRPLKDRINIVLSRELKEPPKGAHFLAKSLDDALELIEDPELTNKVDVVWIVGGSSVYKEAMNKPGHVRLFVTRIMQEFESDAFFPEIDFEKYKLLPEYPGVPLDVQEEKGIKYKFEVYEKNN
Experimental: The activity of DHFR was determined at 25° C. by following the decrease of NADPH and DHF by absorbance measurements at 340 nm (ε=11,800 M^−1 cm^−1) by using a Perkin-Elmer Lambda-2 spectrophotometer with cuvettes of 1.0 cm light-path.
Experiments were performed at pH 7.58 and 25° C. in a buffer containing 2-(N-morpholino)ethanesulfonic acid (MES, 25 mM), sodium acetate (25 mM), tris(hydroxymethyl)aminomethane (Tris 50 mM), and NaCl (100 mM). To prevent the oxidation of catechins, the reaction mixture contained 1 mM ascorbic acid. The pH of the reaction was measured before and after of the experiment. The assays were started by the addition of enzyme. In the absence of the enzyme, the rate of change of absorbance was negligible. […]
Progress curves for the slow, tight-binding inhibition of bovine liver DHFR by EGCG were determined by continuously monitoring the disappearance of NADPH and DHF after initiation of the reaction by the addition of 3.3 nM enzyme. Reaction mixtures contained buffer, NADPH (100 μM), DHF (20 μM) and EGCG. Assuming that the concentration of free inhibitor is not substantially altered by the formation of an enzyme-NADPH-inhibitor complex, the progress curve for the inhibition in the presence of saturating NADPH is described by Eqn. (1): P=vst+(v0−vs)(1−exp(−k′t))/k′
where vs, v0 and k′ represent the steady-state velocity, initial velocity and apparent first-order rate constant, respectively.
The values of k′ at different EGCG concentrations were obtained by non-linear regression analysis of the progress curves. KI and KI* denote the respective dissociation constants for the initial and equilibrium binding of inhibitors to the enzyme-NADPH complex (FIG. 5).

[1] = biological target: T2, recombinant human DHFR (rHDHFR) (Homo sapiens, UniProt P00374); test: Inhibition of human DHFR by tea catechins; format: biochemical
T2 sequence (P00374 1-187): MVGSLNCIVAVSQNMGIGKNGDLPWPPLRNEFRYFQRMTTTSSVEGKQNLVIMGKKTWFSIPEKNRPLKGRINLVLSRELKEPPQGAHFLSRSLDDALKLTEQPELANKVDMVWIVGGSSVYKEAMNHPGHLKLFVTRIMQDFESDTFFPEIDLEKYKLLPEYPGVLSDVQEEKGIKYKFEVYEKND

Chain of S. maltophilia DHFR (B2FPG1 entry or part of it): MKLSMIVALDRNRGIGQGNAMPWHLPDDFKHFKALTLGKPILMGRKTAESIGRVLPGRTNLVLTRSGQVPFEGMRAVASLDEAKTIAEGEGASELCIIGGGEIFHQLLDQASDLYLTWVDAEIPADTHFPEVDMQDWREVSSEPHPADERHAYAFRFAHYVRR

Q: Which results are given for `COc1cc(Cc2cnc(N)nc2N)cc(OC)c1OC` [trimethoprim]?
A: Ki (S. maltophilia DHFR): 4690 nM; Type of inhibition observed (S. maltophilia DHFR): competitive (reversible); effect of preincubation of the enzyme with inhibitor (S. maltophilia DHFR): did not produce any measurable inhibition

Q: With `Nc1nc(=O)c2c([nH]1)NCC(CNc1ccc(C(=O)N[C@@H](CCC(=O)O)C(=O)O)cc1)=N2` [DHF, 7,8-dihydrofolate] as the compound, how does the Km (S. maltophilia DHFR; pH 8.0) read?
A: 1.8 µM

Q: With `NC(=O)C1=CN([C@@H]2O[C@H](COP(=O)(O)OP(=O)(O)OC[C@H]3O[C@@H](n4cnc5c(N)ncnc54)[C@H](OP(=O)(O)O)[C@@H]3O)[C@@H](O)[C@H]2O)C=CC1` [NADPH] as the compound, how does the Km (S. maltophilia DHFR; pH 8.0) read?
A: 12 µM

Q: What does the source list for `CN(Cc1cnc2nc(N)nc(N)c2n1)c1ccc(C(=O)N[C@@H](CCC(=O)O)C(=O)O)cc1` [methotrexate]?
A: Type of inhibition observed (S. maltophilia DHFR; S. maltophilia DHFR): competitive (slow-; k1 (S. maltophilia DHFR; S. maltophilia DHFR, calculated by using Eqn. 3): 6.17e+07 M⁻¹ s⁻¹; rate constant k2 (S. maltophilia DHFR; S. maltophilia DHFR, pH 8.0): 0.0011 s⁻¹; growth inhibition in HT medium (L1210 cells): greatly attenuated; p16 methylation pattern (p16): reversal of hypermethylation was observed

Q: For `Oc1cc(O)c2c(c1)O[C@H](c1cc(O)c(O)c(O)c1)[C@H](O)C2` [EGC, (−)-epigallocatechin, reference compound], which “inhibition of DHFR activity” value (bovine liver DHFR) is on record?
A: did not inhibit

Q: What about the “inhibition of rHDHFR activity” value [1] of the same compound?
A: did not inhibit

Q: Which results are given for `O=C(O[C@@H]1Cc2c(O)cc(O)cc2O[C@@H]1c1ccc(O)c(O)c1)c1cc(O)c(O)c(O)c1` [ECG, (−)-epicatechin gallate]?
A: inhibition of DHFR activity (bovine liver DHFR): potent inhibitor; k5 (bovine liver DHFR): 0.11 min⁻¹; k5/k6 (bovine liver DHFR): 7.1 ratio; k6 (bovine liver DHFR): 0.015 min⁻¹; Ki (bovine liver DHFR; KI*, equilibrium binding to enzyme-NADPH complex): 6.55 nM; Ki (bovine liver DHFR; KI, initial binding to enzyme-NADPH complex, pH 7.58, 25° C.): 51.3 nM; inhibition of rHDHFR activity [1]: potent inhibitors
